# Laboratory results taken from article PMC12040169 (PLOS Biology, 2025).
# Experiment: in vitro
# Details: human, hela cells, % viability
row,SMILES,"viability at 28.5 h, 10 µM"
1,Cc1ccc(Cc2c(C)[nH]c3[nH]n(-c4ccccc4)c(=O)c3c2=O)cc1 [CBK270273],83.7%
2,O=C(NCCc1cccs1)C(c1ccccc1)c1ccccc1 [CBK270275],90.1%
3,O=C(O)c1ccc(CN2C(=O)COc3ccccc32)o1 [CBK270276],104%
4,CNS(=O)(=O)c1cc(C(=O)NCc2ccccc2)ccc1OC [CBK270277],94.9%
5,CC(O)CNCc1ccccc1OCc1ccccc1F (centres unmarked) [CBK270278C],93.2%
6,COc1ccc(-c2c3c(nc4sc(C#N)c(N)c24)CCCC3)cc1 [CBK270279],80%
7,COc1ccc(NC(=O)C2CC(=O)NC3=C2C(=O)CC(c2ccco2)C3)cc1 (centres unmarked) [CBK270282],90.6%
8,O=C(Nc1cccc(-c2noc(-c3ccccn3)n2)c1)c1cccs1 [CBK270283],88.9%
9,O=C1CC(c2ccccc2O)CC2=C1C=Nc1ccccc1N2 (centres unmarked) [CBK270287],97.4%
10,CCOC(=O)c1ccsc1NC(=O)C1CC=CCC1C(=O)O (centres unmarked) [CBK270291],97.5%
11,NC(=O)c1ccccc1NC(=O)CN1CCN(Cc2cccc(F)c2)CC1 [CBK270292],85.9%
12,O=C(O)C1CCCCC1C(=O)N1CCN(Cc2cccc3ccccc23)CC1 (centres unmarked) [CBK270293],91.2%
13,Cc1ccccc1CN1CCN(CC(=O)Nc2ccccc2C(N)=O)CC1 [CBK270296],94.1%
14,Cc1c(Cl)cccc1NC(=O)CSc1nccn1C [CBK270297],91.5%
15,O=C(O)COCC(=O)N1CCN(CCc2ccccc2)CC1 [CBK270298],107%
16,Cc1cccc(-c2nc(CN3CCOCC3)cs2)c1 [CBK270299],103%
17,CCCN1CCN(CC(=O)NCc2ccco2)CC1 [CBK270300],84.2%
18,COc1ccc(NC(=O)C2CCCCC2C(=O)O)c(C)c1 (centres unmarked) [CBK270301],83.9%
19,CCn1cc(S(=O)(=O)Nc2cc(C)on2)cn1 [CBK270302],84.3%
20,COc1ccc(NC(=O)CSc2nnc(C3CC3)n2C)c(OC)c1 [CBK270303],81.9%
21,CCn1cc(S(=O)(=O)NCc2ccccc2OC)cn1 [CBK270304],98.1%
22,COc1cc(NC(=O)CSc2nncn2C)c(OC)cc1Cl [CBK270307],86.4%
23,Cc1occc1-c1nnc(SCC(=O)Nc2ccccc2)n1C [CBK270308],84.9%
24,CN(C)CCNC(=O)c1cccc(Oc2ccccc2)c1 [CBK270310],83.1%

row,SMILES,"viability at 28.5 h, 10 µM"
1,CCc1cc(C(=O)OC)c(NC(=O)C2C3C=CC(C3)C2C(=O)O)s1 (centres unmarked) [CBK270315],94.9%
2,Cc1sc(NC(=O)c2ccc(F)cc2Cl)c(C(=O)NCc2cccnc2)c1C [CBK270319],82.9%
3,NC(=O)c1ccccc1NC(=O)CN1CCN(Cc2cccc(Cl)c2)CC1 [CBK270320],103%
4,CCn1cc(S(=O)(=O)N2CCC3(CC2)OCCO3)cn1 [CBK270321],112%
5,Cc1nn(S(=O)(=O)c2cccc3nsnc23)c(C)c1Cl [CBK270323],92.6%
6,O=S(=O)(c1ccc(Cl)s1)N1CCN(Cc2ccc3c(c2)OCO3)CC1 [CBK270324],89.5%
7,COC(=O)c1sccc1NC(=O)c1ccc(F)cc1Cl [CBK270325],88.2%
8,CCCN1CCN(S(=O)(=O)c2ccc(C)cc2)CC1 [CBK270326],90%
9,CC(NC(=O)c1cccc(Oc2ccccc2)c1)c1ccncc1 (centres unmarked) [CBK270327],91.3%
10,CCn1cc(S(=O)(=O)N2CCN(c3cccc(C(F)(F)F)c3)CC2)cn1 [CBK270328],93.6%
11,O=C(O)C1CCCCC1C(=O)N1CCN(Cc2cccc(Cl)c2)CC1 (centres unmarked) [CBK270330],85%
12,O=C(Nc1ccc2c(c1)OCO2)N1CCN(c2ccc(F)cc2)CC1 [CBK270332],86.3%
13,O=C(NCc1ccco1)c1cccc(Oc2ccccc2)c1 [CBK270333],89.3%
14,O=C(O)C1C2C=CC(C2)C1C(=O)N1CCN(Cc2ccccc2Cl)CC1 (centres unmarked) [CBK270334],93%
15,CCN1CCN(C(=O)C2CCCCC2C(=O)O)CC1 (centres unmarked) [CBK270337],111%
16,O=C(Nc1ccc2c(c1)C(=O)NC2=O)c1ccccc1 [CBK270384],86.5%
17,Nc1nonc1-n1nnc(CN2CCCCC2)c1CN1CCCCC1 [CBK270636],82.3%
18,CC(=O)N(C)c1ccc(NC(=O)c2ccccc2C(=O)O)cc1 [CBK270693],97.9%
19,CSc1nc(-c2ccccc2)nc(N)c1C(C)=O [CBK270762],90.1%
20,CC1(C)CCCC2=C1CC(C(=O)O)C(C(=O)O)C2 (centres unmarked) [CBK272329],97.4%
21,CC(C)(C)c1cn2c3ccccc3nc2n1CCO [CBK273412],102%
22,O=C(O)c1ccc(N2C(=O)CC(N3CCC(Cc4ccccc4)CC3)C2=O)cc1 (centres unmarked) [CBK273484],93.4%
23,O=C(O)C1Nc2c(C(=O)N3CCOCC3)cccc2C2C=CCC12 (centres unmarked) [CBK275006],104%
24,O=C(CSCc1ccc(Cl)cc1Cl)Nc1ccc(O)cc1C(=O)O [CBK275322],95%

row,SMILES,"viability at 28.5 h, 10 µM"
1,O=C(O)c1ccc(NC(=O)c2ccccc2F)c(NC(=O)c2ccccc2F)c1 [CBK275363],101%
2,CCOc1ccccc1NC(=O)CCCC(=O)O [CBK275986],98.9%
3,O=C(O)CCSC1CC(=O)N(c2ccc(F)cc2)C1=O (centres unmarked) [CBK276120],89.9%
4,CSCCC(NC(=O)c1ccc(C#CC(C)(C)O)cc1)C(=O)O (centres unmarked) [CBK276698],93.9%
5,COCCCNCCn1cnc2c(N)ncnc21 [CBK277059],88.9%
6,CC1CCC2(CC1)N=C(N)Nc1nc3ccccc3n12 (centres unmarked) [CBK277657],88.4%
7,Fc1ccccc1COc1cccc(CNCCN2CCOCC2)c1 [CBK278148C],102%
8,c1ccc2c(CNCCN3CCOCC3)cccc2c1 [CBK278156C],90.9%
9,O=C(O)CCNC1=Nc2ccccc2CCC1 [CBK278160],101%
10,CN1C2CCC1CC(OC(=O)CNC1CCCCC1)C2 (centres unmarked) [CBK278161C],93.6%
11,COc1c(Cl)cc(Cl)cc1CNCCCN1CCOCC1 [CBK278165C],88.8%
12,O=C1C=CC2=C3Oc4c(ccc5cc(O)ccc45)C(c4ccccc4C(=O)O)C3C=CC2=C1 (centres unmarked) [CBK278169N],82.8%
13,CCc1nnc(N/N=C/c2ccc(OCc3ccc(F)cc3Cl)c(OC)c2)n1N [CBK278173C],87.1%
14,CN(C)CCOC(=O)C1CCCCCN1C (centres unmarked) [CBK278175G],97.8%
15,CC(O)c1ccc(-c2ccc(CNCCCN3CCOCC3)o2)cc1 (centres unmarked) [CBK278178C],95.4%
16,COc1ccc(CNCCN2CCOCC2)c(OC)c1 [CBK278180C],90.1%
17,CCOc1c(CNCCN2CCOCC2)cccc1OC [CBK278182C],103%
18,COc1cccc(CNCCN2CCOCC2)c1O [CBK278183C],90.2%
19,O=C1C2C3C=CC(C3)C2C(=O)N1CCN1CCNCC1 (centres unmarked) [CBK278185C],92.3%
20,CN(C)CCNc1cc(-c2ccc3ccccc3c2)nc2ccccc12 [CBK278186B],67.9%
21,Cn1cccc1CNCCN1CCOCC1 [CBK278187C],89.2%
22,Clc1ccc(Cl)c(-c2ccc(CNCCCN3CCOCC3)o2)c1 [CBK278190C],89.3%
23,CN1CCN(CC(O)COc2ccccc2)CC1 (centres unmarked) [CBK278191G],83.8%
24,Fc1ccc(CNCCN2CCOCC2)cc1 [CBK278192C],105%

row,SMILES,"viability at 28.5 h, 10 µM"
1,CCOC(=O)Nc1ccc2c(c1)N(C(=O)CCN(C)C)c1ccccc1CC2 [CBK278193C],89.9%
2,C(=C\c1ccccc1)/CNCCCN1CCOCC1 [CBK278195C],105%
3,O=S(=O)(O)c1ccc(N/N=C/c2cccc(/C=N/Nc3ccc(S(=O)(=O)O)cc3)c2)cc1 [CBK278204N],89%
4,Cc1cccc(C)c1OCCOCC(O)CN1CCN(C)CC1 (centres unmarked) [CBK278206C],90.4%
5,COc1ccc(Br)cc1CNCCCN1CCOCC1 [CBK278208C],102%
6,C1CN=C(SCCCSC2=NCCCN2)NC1 [CBK278210B],110%
7,CC1CCC(C(C)C)C(OCC(O)CN2CCN(C)CC2)C1 (centres unmarked) [CBK278213C],105%
8,C=CCOc1ccc(CNCCN2CCOCC2)cc1 [CBK278215C],94.3%
9,O=C(CCN1CCN(CCO)CC1)N1c2ccccc2Sc2ccc(C(F)(F)F)cc21 [CBK278218C],96.4%
10,COC(=O)Nc1ccc2c(c1)N(C(=O)CCN1CCN3CCCC3C1)c1ccccc1CC2 (centres unmarked) [CBK278220C],93.1%
11,Fc1ccccc1COc1ccccc1CNCCN1CCOCC1 [CBK278222C],96.4%
12,Cc1ccc(COC(CN2CCCCCC2)CN2CCCCCC2)cc1 [CBK278236C],100%
13,CN1CCN(CCCN2C(=O)CSC2c2cccc([N+](=O)[O-])c2)CC1 (centres unmarked) [CBK278237C],99.9%
14,CCOC(=O)c1c(C)nc2n(CCN3CCCCC3)c3ccccc3n12 [CBK278238C],91.3%
15,CCN(CC)CCn1c(=N)n(CC(=O)c2cccs2)c2ccccc21 [CBK278240B],85.1%
16,O=C(NCCN1CCNCC1)c1ccccn1 [CBK278241C],108%
17,CC(=O)c1c(-c2cccc3ccccc23)nc2n(CCN3CCCCC3)c3ccccc3n12 [CBK278243C],103%
18,N=c1n(CCN2CCCCC2)c2ccccc2n1CC(=O)c1cccs1 [CBK278244B],85%
19,OC(COCc1ccc2c(c1)OCO2)CN1CCN(Cc2ccccc2)CC1 (centres unmarked) [CBK278249C],93.5%
20,CC(C)(C)c1cn2c3ccccc3nc2n1CCN1CCOCC1 [CBK278252C],103%
21,CN1CCN(CC(O)COCc2ccc3c(c2)OCO3)CC1 (centres unmarked) [CBK278260C],81.4%

# Same assay, conditions: human, hela cells, % viability, bulk resorufin, single well
row,SMILES,"viability at 28.5 h, 10 µM"
1,O=C1NC(=O)N(c2ccc(Br)cc2)C(=O)/C1=C/c1ccc(O)c(O)c1 [CBK278167],104%
2,O=C1NC(=O)N(Cc2ccccc2)C(=O)/C1=C/c1ccc(O)c(O)c1 [CBK278181],117%
